Earlier results, collected in patent US10568936B2, “Pharmaceutical composition for transmucosal delivery and methods for treating diabetes in a subject in need thereof” (Eastgate Pharmaceuticals Inc., priority 2014, dated 2020).

Key:
[1] = eutectic mixture with menthol

C[C@]12CC[C@H]3[C@@H](CCC4=CC(=O)CC[C@@]43C)[C@@H]1CC[C@@H]2O [testosterone]
Increase in the solubility of testosterone in an aqueous ethanol vehicle [1]: 2.8 fold | Increase in the flux of testosterone (eutectic mixture with menthol): 2.8 fold | Further increase in skin flux (high concentration of menthol): eight times the base line
